The results in this text go back to patent publication US9452997B2, “Piperidine and piperazine derivatives as autotaxin inhibitors” (Merck Patent GmbH, priority 2009, dated 2016).

A value given as a limit tells only on which side of the number the result lay.

For one test, the target named is T1, Recombinant autotaxin (Homo sapiens, UniProt Q13822).
T1 construct: made in house; host or cells: Hi5 insect cells (baculovirus)
The experiment in a line: Autotaxin assay (Amplex Red, LPC substrate). In kind it is biochemical. Particulars: % of control at 1E−05 (compound concentration); uninhibited control = 100%. The method, boiled down:
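Recombinant autotaxin (Hi5 baculovirus, 16 ng) pre-incubated with compound 30 min at 22° C, then reacted with 75 μM egg LPC for 90 min at 37° C. Choline released is coupled to H2O2 and Amplex Red fluorescence (ex 485/em 612 nm). IC50 from ten 1:3 dilutions from 30 μM, duplicates, normalised to 500 μM C14 LPA.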
For `N#Cc1ccc(CCC(=O)N2CCC(N3CCN(C(=O)c4ccc5[nH]nnc5c4)CC3)CC2)cc1` [Compound 94, 4-(3-{4-[4-(1H-Benzotriazole-5-carbonyl)-piperazin-1-yl]-piperidin-1-yl}-3-oxo-propyl)-benzonitrile], the “% CTRL (1E−05)” value stood at 77%.

Staying with this test, now noted: recombinant autotaxin, LPC substrate, Amplex Red detection; values given as upper bounds.
Turning to `O=C(Cc1ccc2[nH]nnc2c1)N1CCC(N2CCN(C(=O)OCc3cc(C(F)(F)F)cc(C(F)(F)F)c3)CC2)CC1` [Compound 139, 4-[1-(2-1H-Benzotriazol-5-yl-acetyl)-piperidin-4-yl]-piperazine-1-carboxylic acid 3,5-bis-trifluoromethyl-benzyl ester], the half-inhibitory concentration (IC50) was < 1 µM. With `O=C(OCc1cc(C(F)(F)F)cc(C(F)(F)F)c1)N1CCN(C2CCN(C(=O)c3ccc4[nH]nnc4c3)CC2)CC1` [Compound 35, 4-[1-(1H-Benzotriazole-5-carbonyl)-piperidin-4-yl]-piperazine-1-carboxylic acid 3,5-bis-trifluoromethyl-benzyl ester], the IC50 was < 1 µM. Still for that read-out and setting: in the case of `O=C(OCc1cc(F)c(F)c(F)c1)N1CCC(N2CCN(C(=O)c3ccc4[nH]nnc4c3)CC2)CC1` [Compound 79, 4-[4-(1H-Benzotriazole-5-carbonyl)-piperazin-1-yl]-piperidine-1-carboxylic acid 3,4,5-trifluoro-benzyl ester] it was < 1 µM; in that of `O=C(CC(=O)N1CCC(N2CCN(C(=O)c3ccc4[nH]nnc4c3)CC2)CC1)c1ccc(C(F)(F)F)cc1` [Compound 164, 1-{4-[4-(1H-Benzotriazole-5-carbonyl)-piperazin-1-yl]-piperidin-1-yl}-3-(4-trifluoromethyl-phenyl)-propane-1,3-dione], < 10 µM; in that of `O=C(Nc1ccc2[nH]nnc2c1)c1cncc(N2CCN(C(=O)OCc3ccc(Cl)cc3)CC2)c1` [Compound 6, 4-[5-(1H-Benzotriazol-5-ylcarbamoyl)-pyridin-3-yl]-piperazine-1-carboxylic acid 4-chloro-benzyl ester], < 30 µM.

As for `O=C(CN1CCC(N2CCN(C(=O)c3ccc4[nH]nnc4c3)CC2)CC1)Nc1cc(C(F)(F)F)cc(C(F)(F)F)c1` [Compound 180, 2-{4-[4-(1H-Benzotriazole-5-carbonyl)-piperazin-1-yl]-piperidin-1-yl}-N-(3,5-bis-trifluoromethyl-phenyl)-acetamide], the IC50 was < 10 µM.

Take `O=C(/C=C/c1ccc(Br)cc1F)N1CCC(N2CCN(C(=O)c3ccc4[nH]nnc4c3)CC2)CC1` [Compound 83, (E)-1-{4-[4-(1H-Benzotriazole-5-carbonyl)-piperazin-1-yl]-piperidin-1-yl}-3-(4-bromo-2-fluoro-phenyl)-propenone]: the IC50 is < 1 µM.

For the molecule `O=C(OCc1cc(C(F)(F)F)cc(C(F)(F)F)c1)N1CCN(C2CCN(S(=O)(=O)c3ccc4[nH]c(=O)sc4c3)CC2)CC1` [Compound 153, 4-[1-(2-Oxo-2,3-dihydro-benzothiazole-6-sulfonyl)-piperidin-4-yl]-piperazine-1-carboxylic acid 3,5-bis-trifluoromethyl-benzyl ester], the IC50 was < 10 µM. Still for that read-out and setting: in the case of `O=C(OCc1ccc2c(c1)OCCO2)N1CCN(C2CCN(C(=O)c3ccc4[nH]nnc4c3)CC2)CC1` [Compound 137, 4-[1-(1H-Benzotriazole-5-carbonyl)-piperidin-4-yl]-piperazine-1-carboxylic acid 2,3-dihydro-benzo[1,4]dioxin-6-ylmethyl ester] it was < 10 µM; in that of `C[C@@H](OC(=O)N1CCN(C2CCN(C(=O)c3ccc4[nH]nnc4c3)CC2)CC1)c1cc(C(F)(F)F)cc(C(F)(F)F)c1` [Compound 169, 4-[1-(1H-Benzotriazole-5-carbonyl)-piperidin-4-yl]-piperazine-1-carboxylic acid (R)-1-(3,5-bis-trifluoromethyl-phenyl)-ethyl ester], < 1 µM; in that of `O=C(CCc1ccc(C(F)(F)F)cc1)N1CCC(N2CCN(C(=O)c3ccc4[nH]nnc4c3)CC2)CC1` [Compound 50, 1-{4-[4-(1H-Benzotriazole-5-carbonyl)-piperazin-1-yl]-piperidin-1-yl}-3-(4-trifluoromethyl-phenyl)-propan-1-one], < 10 µM.

As for `O=C(CCc1cc(F)c(F)c(Cl)c1)N1CCN(C2CCN(C(=O)c3ccc4[nH]nnc4c3)CC2)CC1` [Compound 129, 1-{4-[1-(1H-Benzotriazole-5-carbonyl)-piperidin-4-yl]-piperazin-1-yl}-3-(3-chloro-4,5-difluoro-phenyl)-propan-1-one], the IC50 is < 10 µM. For `CS(=O)(=O)Nc1ccc(C(=O)N2CCN(C3CCN(C(=O)CCc4ccc(C(F)(F)F)cc4)CC3)CC2)cc1` [Compound 59, N-[4-(4-{1-[3-(4-Trifluoromethyl-phenyl)-propionyl]-piperidin-4-yl}-piperazine-1-carbonyl)-phenyl]-methanesulfonamide], the IC50 was < 10 µM. Same read-out and setting: in the case of `O=C(OCc1ccc(C(F)(F)F)cc1)N1CCC(NC2CCN(C(=O)c3ccc4[nH]nnc4c3)C2)CC1` (stereo not shown) [Compound 70, 4-[1-(1H-Benzotriazole-5-carbonyl)-pyrrolidin-3-ylamino]-piperidine-1-carboxylic acid 4-trifluoromethyl-benzyl ester] it was < 10 µM. With `O=C(OCc1cc(Cl)cc(Cl)c1)N1CCN(C2CCN(C(=O)c3ccc4[nH]nnc4c3)CC2)CC1` [Compound 19, 4-[1-(1H-Benzotriazole-5-carbonyl)-piperidin-4-yl]-piperazine-1-carboxylic acid 3,5-dichloro-benzyl ester], the IC50 was < 1 µM. In the case of `O=C(OCc1ccc(C(F)(F)F)c(F)c1)N1CCN(C2CCN(C(=O)c3ccc4[nH]nnc4c3)CC2)CC1` [Compound 158, 4-[1-(1H-Benzotriazole-5-carbonyl)-piperidin-4-yl]-piperazine-1-carboxylic acid 3-fluoro-4-trifluoromethyl-benzyl ester], the IC50 was < 1 µM. On to `Cc1cc(CCC(=O)N2CCN(C3CCN(C(=O)c4ccc5[nH]nnc5c4)CC3)CC2)cc(C)c1F` [Compound 106, 1-{4-[1-(1H-Benzotriazole-5-carbonyl)-piperidin-4-yl]-piperazin-1-yl}-3-(4-fluoro-3,5-dimethyl-phenyl)-propan-1-one], for which the IC50 was < 10 µM. Same read-out and setting: in the case of `O=C(CCc1ccc(Cl)cc1F)N1CCC(NC2CCN(C(=O)c3ccc4[nH]nnc4c3)CC2)C1` (stereo not shown) [Compound 66, 1-{3-[1-(1H-Benzotriazole-5-carbonyl)-piperidin-4-ylamino]-pyrrolidin-1-yl}-3-(4-chloro-2-fluoro-phenyl)-propan-1-one] it was < 10 µM; in that of `O=C(OCc1ccc(Cl)c(F)c1)N1CCN(C2CCN(C(=O)c3ccc4[nH]nnc4c3)CC2)CC1` [Compound 117, 4-[1-(1H-Benzotriazole-5-carbonyl)-piperidin-4-yl]-piperazine-1-carboxylic acid 4-chloro-3-fluoro-benzyl ester], < 1 µM. Turning to `Cc1ccc(COC(=O)N2CCN(C3CCN(C(=O)c4ccc5[nH]nnc5c4)CC3)CC2)cc1C(F)(F)F` [Compound 119, 4-[1-(1H-Benzotriazole-5-carbonyl)-piperidin-4-yl]-piperazine-1-carboxylic acid 4-methyl-3-trifluoromethyl-benzyl ester], the IC50 is < 10 µM. Regarding `O=C(Nc1ccc2[nH]nnc2c1)C1CC(=O)N(C2CCN(C(=O)OCc3ccc(Cl)cc3)CC2)C1` (stereo not shown) [Compound 2, 4-[4-(1H-Benzotriazol-5-ylcarbamoyl)-2-oxo-pyrrolidin-1-yl]-piperidine-1-carboxylic acid 4-chloro-benzyl ester], the IC50 was < 1 µM.

As a reminder, the IC50 is the point on the concentration scale where inhibition reaches its midpoint.
